Experiment: xn = mol fraction of the nth substance listed
Settings: Fluid (supercritical or subcritical phases), x1 = 0.97; for mass density: Vibrating tube method; for speed of sound: 293.13 K, Frequency=5 MHz, Pulse-echo method

O=C=O [carbon dioxide] + CO
Settings | mass density [kg/m3]
283.15 K, 19575 kPa | 977.29
283.15 K, 19600 kPa | 977.43
283.15 K, 19625 kPa | 977.51
283.15 K, 19650 kPa | 977.66
283.15 K, 19675 kPa | 977.74
283.15 K, 19700 kPa | 977.89
283.15 K, 19725 kPa | 977.97
283.15 K, 19750 kPa | 978.07
283.15 K, 19775 kPa | 978.19
283.15 K, 19800 kPa | 978.31
283.15 K, 19825 kPa | 978.42
283.15 K, 19850 kPa | 978.49
283.15 K, 19875 kPa | 978.64
283.15 K, 19900 kPa | 978.72
283.15 K, 19925 kPa | 978.84
283.15 K, 19950 kPa | 978.96
283.15 K, 19975 kPa | 979.04
283.15 K, 20000 kPa | 979.19
293.15 K, 6500 kPa | 813.14
293.15 K, 6525 kPa | 813.39
293.15 K, 6550 kPa | 813.83
293.15 K, 6575 kPa | 814.36
293.15 K, 6600 kPa | 814.85
293.15 K, 6625 kPa | 815.37
293.15 K, 6650 kPa | 815.85
293.15 K, 6675 kPa | 816.32
293.15 K, 6700 kPa | 816.75
293.15 K, 6725 kPa | 817.24
293.15 K, 6750 kPa | 817.7
293.15 K, 6775 kPa | 818.19
293.15 K, 6800 kPa | 818.69
293.15 K, 6825 kPa | 819.09
293.15 K, 6850 kPa | 819.56
293.15 K, 6875 kPa | 820.02
293.15 K, 6900 kPa | 820.51
293.15 K, 6925 kPa | 821
293.15 K, 6950 kPa | 821.45
293.15 K, 6975 kPa | 821.88
293.15 K, 7000 kPa | 822.38
293.15 K, 7025 kPa | 822.78
293.15 K, 7050 kPa | 823.25

Settings | speed of sound [m/s]
20010 kPa | 624.7
24930 kPa | 674.5
29990 kPa | 718.7
34940 kPa | 755.3
39990 kPa | 791.4
44940 kPa | 822.9
49970 kPa | 852.5
54900 kPa | 879.8
59940 kPa | 906
64950 kPa | 930.5
69950 kPa | 953.8
74980 kPa | 976
80020 kPa | 997.6
90010 kPa | 1037.3
100010 kPa | 1074.3
109950 kPa | 1108.7
120040 kPa | 1141.7
140050 kPa | 1201.9
160040 kPa | 1256.5
178780 kPa | 1303.9
